# Results as given in ChEMBL document CHEMBL1201862, “PubChem BioAssay data set” (2004).
#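 Each compound was tested at five concentrations against cells in 96-well plates for 48 hours. GI50 = concentration required for 50% inhibition of growth.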 Activity calls are given as the source filed them. Cut-off read from the data, not from the text of the source: active = GI50 up to about 1.1 µM and inactive = higher.
# How the values were obtained:
# Assay in all cases: growth of human tumour cells (NCI), 48 h
# HL-60 = system: HL-60
# OVCAR-8 = system: OVCAR-8
# MDA-N = system: MDA-N
# HOP-92 = system: HOP-92
# HCT-116 = system: HCT-116
# MDA-MB-435 = system: MDA-MB-435
# LOX IMVI = system: LOX IMVI
# K562 = system: K562
# MOLT-4 = system: MOLT-4
# NCI-H522 = system: NCI-H522
# CCRF-CEM = system: CCRF-CEM
# NCI-H23 = system: NCI-H23
# Hs-578T = system: Hs-578T
# SF-539 = system: SF-539
# HCT-15 = system: HCT-15
# OVCAR-3 = system: OVCAR-3
# SNB-75 = system: SNB-75
# OVCAR-4 = system: OVCAR-4
# SF-295 = system: SF-295
# RPMI-8226 = system: RPMI-8226
# ACHN = system: ACHN
# SF-268 = system: SF-268
# A549 = system: A549
# T47D = system: T47D
# NCI-H226 = system: NCI-H226
# UO-31 = system: UO-31
# DU-145 = system: DU-145
# UACC-62 = system: UACC-62
# COLO 205 = system: COLO 205
# Malme-3M = system: Malme-3M
# HT-29 = system: HT-29
# HOP-62 = system: HOP-62
# BT-549 = system: BT-549
# SR = system: SR
# M14 = system: M14
# MDA-MB-231 = system: MDA-MB-231
# U-251 = system: U-251
# SW-620 = system: SW-620
# 786-0 = system: 786-0
# SK-MEL-2 = system: SK-MEL-2
# SK-OV-3 = system: SK-OV-3
# EKVX = system: EKVX
# A498 = system: A498
# IGROV-1 = system: IGROV-1
# KM12 = system: KM12
# SK-MEL-5 = system: SK-MEL-5
# MCF7 = system: MCF7
# UACC-257 = system: UACC-257
# OVCAR-5 = system: OVCAR-5
# TK-10 = system: TK-10
# NCI/ADR-RES = system: NCI/ADR-RES
# PC-3 = system: PC-3
# CAKI-1 = system: CAKI-1
# SNB-19 = system: SNB-19
# SN12C = system: SN12C
# SK-MEL-28 = system: SK-MEL-28
# NCI-H460 = system: NCI-H460
# RXF 393 = system: RXF 393
compound,measurement,setting,value
O=C1CC(n2cccc2)c2cc(Br)sc21 (stereo not given),GI50,HL-60,14.5 µM (inactive)
same,GI50,OVCAR-8,36.9 µM (inactive)
same,GI50,MDA-N,55.6 µM (inactive)
same,GI50,HOP-92,> 100 µM (inactive)
same,GI50,HCT-116,66.7 µM (inactive)
same,GI50,MDA-MB-435,87.5 µM (inactive)
same,GI50,LOX IMVI,31.9 µM (inactive)
same,GI50,K562,> 100 µM (inactive)
same,GI50,MOLT-4,16.1 µM (inactive)
same,GI50,NCI-H522,21.6 µM (inactive)
same,GI50,CCRF-CEM,18.7 µM (inactive)
same,GI50,NCI-H23,39.1 µM (inactive)
same,GI50,Hs-578T,> 100 µM (inactive)
same,GI50,SF-539,> 100 µM (inactive)
same,GI50,HCT-15,> 100 µM
same,GI50,OVCAR-3,> 100 µM (inactive)
same,GI50,SNB-75,7.93 µM (inactive)
same,GI50,OVCAR-4,> 100 µM (inactive)
same,GI50,SF-295,> 100 µM (inactive)
same,GI50,RPMI-8226,26.4 µM (inactive)
same,GI50,ACHN,> 100 µM (inactive)
same,GI50,SF-268,> 100 µM (inactive)
same,GI50,A549,> 100 µM (inactive)
same,GI50,T47D,48.3 µM (inactive)
same,GI50,NCI-H226,> 100 µM (inactive)
same,GI50,UO-31,> 100 µM (inactive)
same,GI50,DU-145,> 100 µM (inactive)
same,GI50,UACC-62,> 100 µM (inactive)
same,GI50,COLO 205,> 100 µM (inactive)
same,GI50,Malme-3M,> 100 µM (inactive)
same,GI50,HT-29,> 100 µM (inactive)
same,GI50,HOP-62,> 100 µM (inactive)
same,GI50,BT-549,> 100 µM (inactive)
same,GI50,SR,15.8 µM (inactive)
same,GI50,M14,> 100 µM (inactive)
same,GI50,MDA-MB-231,> 100 µM (inactive)
same,GI50,U-251,> 100 µM (inactive)
same,GI50,SW-620,35 µM (inactive)
same,GI50,786-0,42 µM (inactive)
same,GI50,SK-MEL-2,> 100 µM (inactive)
same,GI50,SK-OV-3,> 100 µM (inactive)
same,GI50,EKVX,> 100 µM (inactive)
same,GI50,A498,> 100 µM (inactive)
same,GI50,IGROV-1,> 100 µM (inactive)
same,GI50,KM12,> 100 µM (inactive)
same,GI50,SK-MEL-5,> 100 µM (inactive)
same,GI50,MCF7,69.5 µM (inactive)
same,GI50,UACC-257,> 100 µM (inactive)
same,GI50,OVCAR-5,> 100 µM (inactive)
same,GI50,TK-10,> 100 µM (inactive)
same,GI50,NCI/ADR-RES,> 100 µM (inactive)
same,GI50,PC-3,> 100 µM (inactive)
same,GI50,CAKI-1,> 100 µM (inactive)
same,GI50,SNB-19,> 100 µM (inactive)
same,GI50,SN12C,43.9 µM (inactive)
same,GI50,SK-MEL-28,> 100 µM (inactive)
same,GI50,NCI-H460,> 100 µM (inactive)
N#C/C(C(=O)CCl)=C1\Nc2ccccc2O1,GI50,HL-60,2.43 µM (inactive)
same,GI50,OVCAR-8,2.89 µM (inactive)
same,GI50,MDA-N,3.71 µM (inactive)
same,GI50,HOP-92,3.88 µM (inactive)
same,GI50,HCT-116,3.43 µM (inactive)
same,GI50,MDA-MB-435,3.24 µM (inactive)
same,GI50,LOX IMVI,1.65 µM (inactive)
same,GI50,K562,3.24 µM (inactive)
same,GI50,MOLT-4,3.35 µM (inactive)
same,GI50,CCRF-CEM,3.29 µM (inactive)
same,GI50,NCI-H23,3.75 µM (inactive)
same,GI50,Hs-578T,6.01 µM (inactive)
same,GI50,SF-539,2.79 µM (inactive)
same,GI50,HCT-15,2.01 µM
same,GI50,OVCAR-3,3.77 µM (inactive)
same,GI50,SNB-75,5.48 µM (inactive)
same,GI50,OVCAR-4,1.49 µM (inactive)
same,GI50,SF-295,2.62 µM (inactive)
same,GI50,RPMI-8226,2.92 µM (inactive)
same,GI50,SF-268,2.67 µM (inactive)
same,GI50,A549,6.1 µM (inactive)
same,GI50,T47D,15.6 µM (inactive)
same,GI50,NCI-H226,2.3 µM (inactive)
same,GI50,UO-31,3.62 µM (inactive)
same,GI50,DU-145,10.2 µM (inactive)
same,GI50,UACC-62,2.35 µM (inactive)
same,GI50,COLO 205,1.94 µM (inactive)
same,GI50,Malme-3M,7.28 µM (inactive)
same,GI50,HT-29,4.13 µM (inactive)
same,GI50,HOP-62,4.89 µM (inactive)
same,GI50,BT-549,2.17 µM (inactive)
same,GI50,SR,3.84 µM (inactive)
same,GI50,M14,3.9 µM (inactive)
same,GI50,MDA-MB-231,2.89 µM (inactive)
same,GI50,U-251,5.36 µM (inactive)
same,GI50,SW-620,4.33 µM (inactive)
same,GI50,786-0,3.76 µM (inactive)
same,GI50,SK-MEL-2,3.3 µM (inactive)
same,GI50,SK-OV-3,12.1 µM (inactive)
same,GI50,A498,1.95 µM (inactive)
same,GI50,IGROV-1,1.83 µM (inactive)
same,GI50,KM12,3.89 µM (inactive)
same,GI50,RXF 393,1.85 µM (inactive)
same,GI50,SK-MEL-5,1.72 µM (inactive)
same,GI50,MCF7,2.56 µM (inactive)
same,GI50,UACC-257,3.07 µM (inactive)
same,GI50,TK-10,7.01 µM (inactive)
same,GI50,NCI/ADR-RES,2.2 µM (inactive)
same,GI50,PC-3,4.45 µM (inactive)
same,GI50,CAKI-1,3.65 µM (inactive)
same,GI50,SNB-19,7.98 µM (inactive)
same,GI50,SN12C,2.9 µM (inactive)
same,GI50,SK-MEL-28,1.63 µM (inactive)
same,GI50,NCI-H460,3.19 µM (inactive)
CN(C)N1C(=O)CC2(CCN(CCCC(=O)c3ccc(F)cc3)CC2)C1=O,GI50,HL-60,> 100 µM (inactive)
same,GI50,OVCAR-8,> 100 µM (inactive)
same,GI50,MDA-N,> 100 µM (inactive)
same,GI50,HCT-116,> 100 µM (inactive)
same,GI50,MDA-MB-435,> 100 µM (inactive)
same,GI50,LOX IMVI,> 100 µM (inactive)
same,GI50,K562,> 100 µM (inactive)
same,GI50,MOLT-4,> 100 µM (inactive)
same,GI50,NCI-H522,> 100 µM (inactive)
same,GI50,NCI-H23,> 100 µM (inactive)
same,GI50,Hs-578T,> 100 µM (inactive)
same,GI50,SF-539,> 100 µM (inactive)
same,GI50,HCT-15,> 100 µM
same,GI50,OVCAR-3,> 100 µM (inactive)
same,GI50,SNB-75,> 100 µM (inactive)
same,GI50,SF-295,> 100 µM (inactive)
same,GI50,RPMI-8226,> 100 µM (inactive)
same,GI50,ACHN,> 100 µM (inactive)
same,GI50,SF-268,> 100 µM (inactive)
same,GI50,A549,> 100 µM (inactive)
same,GI50,T47D,> 100 µM (inactive)
same,GI50,NCI-H226,> 100 µM (inactive)
same,GI50,UO-31,> 100 µM (inactive)
same,GI50,DU-145,> 100 µM (inactive)
same,GI50,UACC-62,> 100 µM (inactive)
same,GI50,COLO 205,> 100 µM (inactive)
same,GI50,Malme-3M,> 100 µM (inactive)
same,GI50,HT-29,> 100 µM (inactive)
same,GI50,HOP-62,> 100 µM (inactive)
same,GI50,BT-549,> 100 µM (inactive)
same,GI50,SR,> 100 µM (inactive)
same,GI50,M14,> 100 µM (inactive)
same,GI50,MDA-MB-231,> 100 µM (inactive)
same,GI50,U-251,> 100 µM (inactive)
same,GI50,SW-620,> 100 µM (inactive)
same,GI50,786-0,> 100 µM (inactive)
same,GI50,SK-MEL-2,> 100 µM (inactive)
same,GI50,SK-OV-3,> 100 µM (inactive)
same,GI50,A498,> 100 µM (inactive)
same,GI50,IGROV-1,> 100 µM (inactive)
same,GI50,KM12,> 100 µM (inactive)
same,GI50,RXF 393,> 100 µM (inactive)
same,GI50,SK-MEL-5,> 100 µM (inactive)
same,GI50,MCF7,> 100 µM (inactive)
same,GI50,UACC-257,> 100 µM (inactive)
same,GI50,OVCAR-5,> 100 µM (inactive)
same,GI50,TK-10,> 100 µM (inactive)
same,GI50,NCI/ADR-RES,> 100 µM (inactive)
same,GI50,PC-3,> 100 µM (inactive)
same,GI50,CAKI-1,> 100 µM (inactive)
same,GI50,SNB-19,> 100 µM (inactive)
same,GI50,SN12C,> 100 µM (inactive)
same,GI50,SK-MEL-28,> 100 µM (inactive)
same,GI50,NCI-H460,> 100 µM (inactive)
